The values below come from patent publication US9708336B2, “Metallo-beta-lactamase inhibitors” (priority 2014, dated 2017).

Where two headings read alike, the source gives them in different places.

One experiment deals with IMP-1 (Serratia marcescens, UniProt P52699). Nature of the experiment: biochemical. The format is biochemical. As to conditions: read-out: IMP-1 IC50.
The next experiment concerns the target VIM-1 (Pseudomonas aeruginosa (strain ATCC 15692 / DSM 22644 / CIP 104116 / JCM 14847 / LMG 12228 / 1C / PRS 101 / PAO1), UniProt A0A0F7KYQ8). Put plainly: Enzyme activity: determination of IC50, fluorescence assay with CCF2-FA substrate (VIM-1). The format is biochemical.
In another experiment the target is NDM-1 (Klebsiella pneumoniae, UniProt C7C422). Nature of the experiment: biochemical. The format is biochemical. The conditions noted are these: read-out: NDM-1 IC50.
NDM-1, sequence (C7C422 whole entry, looked up, species assumed): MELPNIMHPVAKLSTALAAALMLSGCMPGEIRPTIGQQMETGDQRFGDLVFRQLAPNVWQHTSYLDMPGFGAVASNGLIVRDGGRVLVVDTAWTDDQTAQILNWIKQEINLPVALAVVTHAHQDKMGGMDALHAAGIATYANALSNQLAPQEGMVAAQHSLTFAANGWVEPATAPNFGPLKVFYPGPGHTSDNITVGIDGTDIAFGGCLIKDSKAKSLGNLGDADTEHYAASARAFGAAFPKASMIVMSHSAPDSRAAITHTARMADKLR
Experiment [1] relates to Escherichia coli expressing NDM-1 (CLB30016). Nature of the experiment: Antibiotic potentiation activity: synergistic concentration (MITC95) with imipenem, OD600 growth. The format is cell-based. An outline of the steps: (§1)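 Imipenem (4 μg/ml final; 1 μg/ml as an option) was combined with compound against isolates diluted 1:100 from saline suspensions into 1.1× CAMHB. Growth was assessed by absorbance at 22–24 h, 35 °C.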

In experiment [2] the test system is Serratia marcescens expressing IMP-1 (CL5741). The experiment is described as above. The format is cell-based. An outline of the steps:
as §1

In experiment [3] the test system is Klebsiella pneumoniae expressing VIM-1 (IHMA599644). The experiment is described as above. The format is cell-based. An outline of the steps:
as §1

The mark [4] stands for this setting: fluorescence assay with CCF2-FA substrate.
The mark [5] stands for this setting: fluorescence assay with CCF2-FA substrate, read-out: VIM-1 IC50.
[6] abbreviates: CLB30016 (NDM-1), 95% inhibition of bacterial growth.
Where [7] appears, read: CL5741 (IMP-1), 95% inhibition of bacterial growth.
Setting [8] is: IHMA599644 (VIM-1), 95% inhibition of bacterial growth.
Where [9] appears, read: VIM-1 IC50, fluorescence assay with CCF2-FA substrate.

IMP-1, sequence (P52699 whole entry, looked up): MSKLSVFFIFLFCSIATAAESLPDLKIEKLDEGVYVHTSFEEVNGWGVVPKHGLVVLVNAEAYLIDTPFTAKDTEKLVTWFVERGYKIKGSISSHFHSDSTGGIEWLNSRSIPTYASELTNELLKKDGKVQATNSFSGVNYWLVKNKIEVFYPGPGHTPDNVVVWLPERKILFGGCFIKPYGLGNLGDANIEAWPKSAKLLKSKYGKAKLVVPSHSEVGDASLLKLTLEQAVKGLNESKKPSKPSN

As to `NS(=O)(=O)c1c(C(F)(F)F)ccc(-c2ccc(S(=O)(=O)CCO)cc2)c1-c1nnn[nH]1` [Example 742, 4′-[(2-hydroxyethyl)sulfonyl]-2-(1H-tetrazol-5-yl)-4-(trifluoromethyl)biphenyl-3-sulfonamide], the IC50 on IMP-1 (IMP-1 enzyme, CCF2-FA substrate) was 1.84 nM; on VIM-1 (VIM-1 enzyme, CCF2-FA substrate, read-out: VIM-1 IC50), 0.657 nM; at NDM-1 (NDM-1 enzyme, CCF2-FA substrate), 2.01 nM. Also, the “Escherichia coli MITC95” value in experiment [1] ((CLB30016, NDM-1), 95% growth inhibition) was 12.5 µM. Besides, the “Serratia marcescens MITC95” value in experiment [2] (Serratia marcescens CL5741 (IMP-1), 95% growth inhibition) worked out at 12.5 µM. For the same compound, in experiment [3] (Klebsiella pneumoniae IHMA599644 (VIM-1), 95% growth inhibition), the “Klebsiella pneumoniae MITC95” value turned out to be 25 µM.

For the compound `Nc1nc2c(F)cc(-c3ccc(C(F)(F)F)c(S(N)(=O)=O)c3-c3nnn[nH]3)cc2s1` [Example 743, 3-(2-amino-4-fluoro-1,3-benzothiazol-6-yl)-2-(1H-tetrazol-5-yl)-6-(trifluoromethyl)benzenesulfon-amide], the IC50 at IMP-1 (setting [4]) came out at 0.901 nM; at VIM-1 (setting [5]) it was 0.147 nM; at NDM-1 (setting [4]) it was 0.409 nM. The “Escherichia coli MITC95” value in experiment [1] (setting [6]) was 3.125 µM. Moreover, the “Serratia marcescens MITC95” value in experiment [2] (setting [7]) was 6.25 µM. In addition, in experiment [3] (setting [8]), the “Klebsiella pneumoniae MITC95” value stood at 6.25 µM.

For the compound `NS(=O)(=O)c1c(C(F)(F)F)ccc(-c2ccc(C3CCNCC3)nc2)c1-c1nnn[nH]1` [Example 744, 3-(6-piperidin-4-ylpyridin-3-yl)-2-(1H-tetrazol-5-yl)-6-(trifluoromethyl)benzenesulfon-amide], the IC50 is 18.1 nM on IMP-1 (setting [4]), 0.907 nM against VIM-1 (setting [9]) and 16.3 nM on NDM-1 (setting [4]). In experiment [1] (setting [6]), the “Escherichia coli MITC95” value turned out to be 6.25 µM. Moreover, in experiment [2] (setting [7]), the “Serratia marcescens MITC95” value is 12.5 µM. For the same compound, the “Klebsiella pneumoniae MITC95” value in experiment [3] (setting [8]) amounted to 12.5 µM.

With `Nc1ccc2cc(-c3ccc(C(F)(F)F)c(S(N)(=O)=O)c3-c3nnn[nH]3)ccc2n1` [Example 745, 3-(2-aminoquinolin-6-yl)-2-(1H-tetrazol-5-yl)-6-(trifluoromethyl)benzenesulfon-amide], the IC50 at IMP-1 (setting [4]) was found to be 1.5 nM; at VIM-1 (setting [5]), 0.175 nM; on NDM-1 (setting [4]), 1.05 nM. Besides, the “Escherichia coli MITC95” value in experiment [1] (setting [6]) was determined as 0.7813 µM. For the same compound, the “Serratia marcescens MITC95” value in experiment [2] (setting [7]) was 3.125 µM. Also, the “Klebsiella pneumoniae MITC95” value in experiment [3] (setting [8]) is 3.125 µM.

On to `NS(=O)(=O)c1c(C(F)(F)F)ccc(-c2ccc3c(c2)CNC3=O)c1-c1nnn[nH]1` [Example 746, 3-(1-oxo-2,3-dihydro-1H-isoindol-5-yl)-2-(1H-tetrazol-5-yl)-6-(trifluoromethyl)benzenesulfon-amide], for which the values for the half-inhibitory concentration (IC50) on IMP-1 (setting [4]), on VIM-1 (setting [5]) and at NDM-1 (setting [4]) were 2.59 nM, 0.234 nM and 2.27 nM, respectively. In addition, in experiment [1] (setting [6]), the “Escherichia coli MITC95” value came out at 6.25 µM. Moreover, the “Serratia marcescens MITC95” value in experiment [2] (setting [7]) turned out to be 6.25 µM. For the same compound, in experiment [3] (setting [8]), the “Klebsiella pneumoniae MITC95” value is 6.25 µM.

`Cc1ccncc1-c1ccc(C(F)(F)F)c(S(N)(=O)=O)c1-c1nnn[nH]1` [Example 747, 3-(4-methylpyridin-3-yl)-2-(1H-tetrazol-5-yl)-6-(trifluoromethyl)benzenesulfon-amide]: the IC50 at IMP-1 (setting [4]) is 11.2 nM; against VIM-1 (setting [9]), 0.866 nM; on NDM-1 (setting [4]), 5.72 nM. For the same compound, in experiment [1] (setting [6]), the “Escherichia coli MITC95” value worked out at 6.25 µM. The “Serratia marcescens MITC95” value in experiment [2] (setting [7]) is 25 µM. For the same compound, the “Klebsiella pneumoniae MITC95” value in experiment [3] (setting [8]) is 12.5 µM.

Regarding `NS(=O)(=O)c1c(C(F)(F)F)ccc(-c2cnc3ccccn23)c1-c1nnn[nH]1` [Example 748, 3-imidazo[1,2-a]pyridin-3-yl-2-(1H-tetrazol-5-yl)-6-(trifluoromethyl)benzenesulfon-amide], the IC50 was 1.25 nM on IMP-1 (setting [4]), 0.248 nM at VIM-1 (setting [9]) and 0.833 nM on NDM-1 (setting [4]). For the same compound, the “Escherichia coli MITC95” value in experiment [1] (setting [6]) turned out to be 0.7813 µM. Besides, in experiment [2] (setting [7]), the “Serratia marcescens MITC95” value is 6.25 µM. Besides, the “Klebsiella pneumoniae MITC95” value in experiment [3] (setting [8]) turned out to be 6.25 µM.

For the compound `Nc1ncnc2cc(-c3ccc(C(F)(F)F)c(S(N)(=O)=O)c3-c3nnn[nH]3)ccc12` [Example 749, 3-(4-aminoquinazolin-7-yl)-2-(1H-tetrazol-5-yl)-6-(trifluoromethyl)benzenesulfon-amide], the IC50 worked out at 4.12 nM on IMP-1 (setting [4]), 0.262 nM against VIM-1 (setting [9]) and 2.35 nM on NDM-1 (setting [4]). The “Escherichia coli MITC95” value in experiment [1] (setting [6]) turned out to be 3.125 µM. Also, in experiment [2] (setting [7]), the “Serratia marcescens MITC95” value amounted to 12.5 µM. Also, the “Klebsiella pneumoniae MITC95” value in experiment [3] (setting [8]) worked out at 6.25 µM.

In the case of `Nc1nc(N)c2ccc(-c3ccc(C(F)(F)F)c(S(N)(=O)=O)c3-c3nnn[nH]3)cc2n1` [Example 750, 3-(2,4-diaminoquinazolin-7-yl)-2-(1H-tetrazol-5-yl)-6-(trifluoromethyl)benzenesulfon-amide], the IC50 on IMP-1 (setting [4]) turned out to be 21.5 nM; against VIM-1 (setting [9]) it was 0.432 nM; at NDM-1 (setting [4]), 4.75 nM. In addition, in experiment [1] (setting [6]), the “Escherichia coli MITC95” value is 1.563 µM. Further, the “Serratia marcescens MITC95” value in experiment [2] (setting [7]) was found to be 6.25 µM. The “Klebsiella pneumoniae MITC95” value in experiment [3] (setting [8]) turned out to be 3.125 µM.

On to `Nc1nccc2cc(-c3ccc(C(F)(F)F)c(S(N)(=O)=O)c3-c3nnn[nH]3)ccc12` [Example 751, 3-(1-aminoisoquinolin-6-yl)-2-(1H-tetrazol-5-yl)-6-(trifluoromethyl)benzenesulfon-amide], for which the IC50 is 5.63 nM at IMP-1 (setting [4]), 0.108 nM on VIM-1 (setting [5]) and 0.962 nM on NDM-1 (setting [4]). Also, the “Escherichia coli MITC95” value in experiment [1] (setting [6]) came to 0.7813 µM. The “Serratia marcescens MITC95” value in experiment [2] (setting [7]) came out at 3.125 µM. In addition, in experiment [3] (setting [8]), the “Klebsiella pneumoniae MITC95” value was determined as 3.125 µM.

Take `CCn1c(N)nc2cc(-c3ccc(C(F)(F)F)c(S(N)(=O)=O)c3-c3nnn[nH]3)ccc21` [Example 752, 3-(2-amino-1-ethyl-1H-benzimidazol-5-yl)-2-(1H-tetrazol-5-yl)-6-(trifluoromethyl)benzenesulfon-amide]: the results for the IC50 at IMP-1 (setting [4]), on VIM-1 (setting [5]) and on NDM-1 (setting [4]) were 6.25 nM, 0.677 nM and 2.33 nM, respectively. Moreover, the “Escherichia coli MITC95” value in experiment [1] (setting [6]) came to 1.563 µM. Moreover, in experiment [2] (setting [7]), the “Serratia marcescens MITC95” value turned out to be 12.5 µM. The “Klebsiella pneumoniae MITC95” value in experiment [3] (setting [8]) was found to be 25 µM.

Turning to `Nc1nccc(-c2cccc(-c3ccc(C(F)(F)F)c(S(N)(=O)=O)c3-c3nnn[nH]3)c2)n1` [Example 753, 3′-(2-aminopyrimidin-4-yl)-2-(1H-tetrazol-5-yl)-4-(trifluoromethyl)biphenyl-3-sulfonamdie], the IC50 was 2.02 nM on IMP-1 (setting [4]), 0.754 nM on VIM-1 (setting [5]) and 1.01 nM on NDM-1 (setting [4]). For the same compound, the “Escherichia coli MITC95” value in experiment [1] (setting [6]) was 12.5 µM. In experiment [2] (setting [7]), the “Serratia marcescens MITC95” value amounted to 12.5 µM. For the same compound, in experiment [3] (setting [8]), the “Klebsiella pneumoniae MITC95” value came out at 100 µM.

Turning to `N[C@@H]1CN(c2ccc(C(F)(F)F)c(S(N)(=O)=O)c2-c2nnn[nH]2)CC12CC2` [Example 754, 3-[(7S)-7-amino-5-azaspiro[2.4]hept-5-yl]-2-(1H-tetrazol-5-yl)-6-(trifluoromethyl) benzenesulfonamide], the IC50 at IMP-1 (setting [4]) turned out to be 869 nM; on VIM-1 (setting [5]), 7.67 nM; on NDM-1 (setting [4]), 596 nM. Further, in experiment [1] (setting [6]), the “Escherichia coli MITC95” value was 25 µM. The “Serratia marcescens MITC95” value in experiment [2] (setting [7]) turned out to be 50 µM. Moreover, the “Klebsiella pneumoniae MITC95” value in experiment [3] (setting [8]) came to 12.5 µM.

With `NCCC1CCN(c2ccc(C(F)(F)F)c(S(N)(=O)=O)c2-c2nnn[nH]2)CC1` [Example 755, 3-[4-(2-aminoethyl)piperidin-1-yl]-2-(1H-tetrazol-5-yl)-6-(trifluoromethyl) benzenesulfonamide], the half-inhibitory concentration (IC50) on IMP-1 (setting [4]) was 22.1 nM; on VIM-1 (setting [5]), 0.191 nM; at NDM-1 (setting [4]), 13.9 nM. Further, the “Escherichia coli MITC95” value in experiment [1] (setting [6]) was determined as 6.25 µM. Besides, in experiment [2] (setting [7]), the “Serratia marcescens MITC95” value turned out to be 6.25 µM. Also, the “Klebsiella pneumoniae MITC95” value in experiment [3] (setting [8]) amounted to 3.125 µM.

Turning to `NS(=O)(=O)c1c(C(F)(F)F)ccc(N2C[C@@H](O)[C@H](O)C2)c1-c1nnn[nH]1` [Example 756, 3-[(3R,4R)-3,4-dihydroxypyrrolidin-1-yl]-2-(1H-tetrazol-5-yl)-6-(trifluoromethyl) benzenesulfonamide], the IC50 was determined as 89.1 nM on IMP-1 (setting [4]), 339 nM against VIM-1 (setting [9]) and 78.1 nM on NDM-1 (setting [4]). Also, in experiment [1] (setting [6]), the “Escherichia coli MITC95” value is 12.5 µM. Besides, the “Serratia marcescens MITC95” value in experiment [2] (setting [7]) was found to be 12.5 µM. In addition, in experiment [3] (setting [8]), the “Klebsiella pneumoniae MITC95” value is over 200 µM.

Consider `NS(=O)(=O)c1c(C(F)(F)F)ccc(N2C[C@@H](O)[C@@H](O)C2)c1-c1nnn[nH]1` [Example 757, 3-[(3R,4S)-3,4-dihydroxypyrrolidin-1-yl]-2-(1H-tetrazol-5-yl)-6-(trifluoromethyl) benzenesulfonamide], for which the IC50 on IMP-1 (setting [4]) came out at 111 nM; on VIM-1 (setting [9]) it was 353 nM; on NDM-1 (setting [4]), 82.8 nM. In experiment [1] (setting [6]), the “Escherichia coli MITC95” value is 12.5 µM. Also, in experiment [2] (setting [7]), the “Serratia marcescens MITC95” value was 25 µM. For the same compound, the “Klebsiella pneumoniae MITC95” value in experiment [3] (setting [8]) is over 200 µM.
